Measured values from the supplement of paper PMC10307832.

Assays:
Assay in all cases: relative viability (nuclei count vs DMSO), 5 days (fraction); higher = more cells survive
HCC-78 = system: HCC-78
Outline: (§1)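 Each reported value is a median over duplicate plates. It expresses relative viability: treated-well nuclei count divided by vehicle-well nuclei count. Lung cancer cell lines in 1536-well plates were dosed by pin tool a day after seeding, alone with one drug or with a fixed anchor-drug dose plus five library-drug doses (not always all listed) in √10 steps, and nuclei were counted after 5 days.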

NCI-H1395 = system: NCI-H1395
Outline: as §1

NCI-H1755 = system: NCI-H1755
Outline: as §1

UMC-11 = system: UMC-11
Outline: as §1

NCI-H2087 = system: NCI-H2087
Outline: as §1

NCI-H1944 = system: NCI-H1944
Outline: as §1

CAL-12T = system: CAL-12T
Outline: as §1

RERF-LC-KJ = system: RERF-LC-KJ
Outline: as §1

NCI-H1734 = system: NCI-H1734
Outline: as §1

NCI-H1793 = system: NCI-H1793
Outline: as §1

LC-2-ad = system: LC-2-ad
Outline: as §1

NCI-H460 = system: NCI-H460
Outline: as §1

LU99A = system: LU99A
Outline: as §1

ChaGo-K-1 = system: ChaGo-K-1
Outline: as §1

EPLC-272H = system: EPLC-272H
Outline: as §1

NCI-H1651 = system: NCI-H1651
Outline: as §1

NCI-H2228 = system: NCI-H2228
Outline: as §1

LOU-NH91 = system: LOU-NH91
Outline: as §1

HCC-366 = system: HCC-366
Outline: as §1

PC-3 [JPC-3] = system: PC-3 [JPC-3]
Outline: as §1

NCI-H2170 = system: NCI-H2170
Outline: as §1

NCI-H3122 = system: NCI-H3122
Outline: as §1

ABC-1 = system: ABC-1
Outline: as §1

NCI-H2405 = system: NCI-H2405
Outline: as §1

## COc1cc(N2CCC(C(N)=O)CC2)ccc1Nc1nc(N)c(Cl)c(Nc2ccccc2S(=O)(=O)C(C)C)n1 [HG-5-88-01] + Cc1nc(Nc2ncc(C(=O)Nc3c(C)cccc3Cl)s2)cc(N2CCN(CCO)CC2)n1 [Dasatinib] (partner 0.075 µM)
HCC-78; first compound 0.04 µM
  relative viability: 0.356
HCC-78; first compound 0.1265 µM
  relative viability: 0.286
HCC-78; first compound 0.4 µM
  relative viability: 0.22
HCC-78; first compound 1.265 µM
  relative viability: 0.197
HCC-78; first compound 4 µM
  relative viability: 0.174
NCI-H1395; first compound 0.04 µM
  relative viability: 0.416
NCI-H1395; first compound 0.1265 µM
  relative viability: 0.371
NCI-H1395; first compound 0.4 µM
  relative viability: 0.393
NCI-H1395; first compound 1.265 µM
  relative viability: 0.394
NCI-H1395; first compound 4 µM
  relative viability: 0.36
NCI-H1755; first compound 0.04 µM
  relative viability: 0.459
NCI-H1755; first compound 0.1265 µM
  relative viability: 0.514
NCI-H1755; first compound 0.4 µM
  relative viability: 0.369
NCI-H1755; first compound 1.265 µM
  relative viability: 0.29
NCI-H1755; first compound 4 µM
  relative viability: 0.15
UMC-11; first compound 0.04 µM
  relative viability: 0.434
UMC-11; first compound 0.1265 µM
  relative viability: 0.449
UMC-11; first compound 1.265 µM
  relative viability: 0.469
UMC-11; first compound 4 µM
  relative viability: 0.409
NCI-H2087; first compound 0.04 µM
  relative viability: 0.826
NCI-H2087; first compound 0.1265 µM
  relative viability: 0.787
NCI-H2087; first compound 0.4 µM
  relative viability: 0.601
NCI-H2087; first compound 1.265 µM
  relative viability: 0.389
NCI-H2087; first compound 4 µM
  relative viability: 0.167
NCI-H1944; first compound 0.04 µM
  relative viability: 0.205
NCI-H1944; first compound 0.1265 µM
  relative viability: 0.201
NCI-H1944; first compound 0.4 µM
  relative viability: 0.233
NCI-H1944; first compound 1.265 µM
  relative viability: 0.191
NCI-H1944; first compound 4 µM
  relative viability: 0.188
CAL-12T; first compound 0.04 µM
  relative viability: 0.382
CAL-12T; first compound 0.1265 µM
  relative viability: 0.36
CAL-12T; first compound 0.4 µM
  relative viability: 0.154
CAL-12T; first compound 1.265 µM
  relative viability: 0.0794
CAL-12T; first compound 4 µM
  relative viability: 0.0951
RERF-LC-KJ; first compound 0.04 µM
  relative viability: 0.804
RERF-LC-KJ; first compound 0.1265 µM
  relative viability: 0.81
RERF-LC-KJ; first compound 0.4 µM
  relative viability: 0.671
RERF-LC-KJ; first compound 1.265 µM
  relative viability: 0.465
RERF-LC-KJ; first compound 4 µM
  relative viability: 0.41
NCI-H1734; first compound 0.04 µM
  relative viability: 0.412
NCI-H1734; first compound 0.1265 µM
  relative viability: 0.432
NCI-H1734; first compound 0.4 µM
  relative viability: 0.326
NCI-H1734; first compound 1.265 µM
  relative viability: 0.358
NCI-H1734; first compound 4 µM
  relative viability: 0.284
NCI-H1793; first compound 0.1265 µM
  relative viability: 0.617
NCI-H1793; first compound 0.4 µM
  relative viability: 0.355
NCI-H1793; first compound 4 µM
  relative viability: 0.336
LC-2-ad; first compound 0.04 µM
  relative viability: 0.633
LC-2-ad; first compound 0.1265 µM
  relative viability: 0.469
LC-2-ad; first compound 0.4 µM
  relative viability: 0.261
LC-2-ad; first compound 1.265 µM
  relative viability: 0.287
LC-2-ad; first compound 4 µM
  relative viability: 0.205
NCI-H460; first compound 0.04 µM
  relative viability: 0.481
NCI-H460; first compound 0.1265 µM
  relative viability: 0.56
NCI-H460; first compound 0.4 µM
  relative viability: 0.316
NCI-H460; first compound 1.265 µM
  relative viability: 0.255
NCI-H460; first compound 4 µM
  relative viability: 0.0831
LU99A; first compound 0.04 µM
  relative viability: 0.592
LU99A; first compound 0.1265 µM
  relative viability: 0.496
LU99A; first compound 0.4 µM
  relative viability: 0.434
LU99A; first compound 1.265 µM
  relative viability: 0.21
LU99A; first compound 4 µM
  relative viability: 0.237
ChaGo-K-1; first compound 0.04 µM
  relative viability: 0.776
ChaGo-K-1; first compound 0.1265 µM
  relative viability: 0.63
ChaGo-K-1; first compound 0.4 µM
  relative viability: 0.509
ChaGo-K-1; first compound 1.265 µM
  relative viability: 0.57
ChaGo-K-1; first compound 4 µM
  relative viability: 0.401
EPLC-272H; first compound 0.04 µM
  relative viability: 0.49
EPLC-272H; first compound 0.1265 µM
  relative viability: 0.31
EPLC-272H; first compound 0.4 µM
  relative viability: 0.226
EPLC-272H; first compound 1.265 µM
  relative viability: 0.121
EPLC-272H; first compound 4 µM
  relative viability: 0.0712
NCI-H1651; first compound 0.04 µM
  relative viability: 0.368
NCI-H1651; first compound 0.1265 µM
  relative viability: 0.619
NCI-H1651; first compound 0.4 µM
  relative viability: 0.375
NCI-H1651; first compound 1.265 µM
  relative viability: 0.249
NCI-H1651; first compound 4 µM
  relative viability: 0.246
NCI-H2228; first compound 0.04 µM
  relative viability: 0.106
NCI-H2228; first compound 0.1265 µM
  relative viability: 0.0974
NCI-H2228; first compound 0.4 µM
  relative viability: 0.0904
NCI-H2228; first compound 1.265 µM
  relative viability: 0.101
NCI-H2228; first compound 4 µM
  relative viability: 0.0733
LOU-NH91; first compound 0.04 µM
  relative viability: 0.57
LOU-NH91; first compound 0.1265 µM
  relative viability: 0.524
LOU-NH91; first compound 0.4 µM
  relative viability: 0.493
LOU-NH91; first compound 1.265 µM
  relative viability: 0.321
LOU-NH91; first compound 4 µM
  relative viability: 0.243
HCC-366; first compound 0.04 µM
  relative viability: 0.65
HCC-366; first compound 0.1265 µM
  relative viability: 0.677
HCC-366; first compound 0.4 µM
  relative viability: 0.514
HCC-366; first compound 1.265 µM
  relative viability: 0.691
HCC-366; first compound 4 µM
  relative viability: 0.3
PC-3 [JPC-3]; first compound 0.04 µM
  relative viability: 1.03
PC-3 [JPC-3]; first compound 0.1265 µM
  relative viability: 0.982
PC-3 [JPC-3]; first compound 0.4 µM
  relative viability: 0.902
PC-3 [JPC-3]; first compound 1.265 µM
  relative viability: 0.936
PC-3 [JPC-3]; first compound 4 µM
  relative viability: 0.814
NCI-H2170; first compound 0.04 µM
  relative viability: 0.502
NCI-H2170; first compound 0.1265 µM
  relative viability: 0.441
NCI-H2170; first compound 0.4 µM
  relative viability: 0.498
NCI-H2170; first compound 1.265 µM
  relative viability: 0.165
NCI-H2170; first compound 4 µM
  relative viability: 0.269
NCI-H3122; first compound 0.04 µM
  relative viability: 0.542
NCI-H3122; first compound 0.1265 µM
  relative viability: 0.209
NCI-H3122; first compound 0.4 µM
  relative viability: 0.149
NCI-H3122; first compound 1.265 µM
  relative viability: 0.161
NCI-H3122; first compound 4 µM
  relative viability: 0.109
ABC-1; first compound 0.04 µM
  relative viability: 0.5
ABC-1; first compound 0.1265 µM
  relative viability: 0.583
ABC-1; first compound 0.4 µM
  relative viability: 0.389
ABC-1; first compound 1.265 µM
  relative viability: 0.457
ABC-1; first compound 4 µM
  relative viability: 0.304
NCI-H2405; first compound 0.04 µM
  relative viability: 0.207
NCI-H2405; first compound 0.1265 µM
  relative viability: 0.179
NCI-H2405; first compound 0.4 µM
  relative viability: 0.155
NCI-H2405; first compound 1.265 µM
  relative viability: 0.197
NCI-H2405; first compound 4 µM
  relative viability: 0.153
